From US12275958B2, “Gut organoid and method for producing the same” (DAI NIPPON PRINTING CO., LTD., priority 2017, dated 2025)

What was measured:
[1] = test system: hESC-derived gut organoid showing peristalsis-like movement; experiment: In vitro contractility of human gut organoids (motile); type: cell-based; settings: 0.2 μM, aspect ratio from video; for frequency / rate of gut organoid contractile movement: days 80-90 in culture
Description: A single human embryonic stem cell (hESC)-derived gut organoid showing peristalsis-like movement (days 80-90 in culture) was treated with the peristaltic stimulator histamine (0.2 μM) and the cholinergic antagonist atropine sulfate (0.2 μM). Contractility responses were recorded using an inverted microscope. Image analysis software CL-Quant version 3.10 (Nikon Corporation) was used to visualize movements in the gut organoid. First, in each frame of the time-lapse images, the software was used to identify a specific region of the organoid. Second, the software fitted an ellipse to this region and calculated the ratio of the longest to shortest diameter to obtain an aspect ratio. Changes in the aspect ratios with time were plotted on the chart. Videos were recorded at 30 frames per second.

[2] = test system: human gut organoids; experiment: In vitro β-Ala-Lys-AMCA uptake by human gut organoids; type: cell-based; settings: 25 μM, 4 hours at 37° C., fluorescence
Description: Gut organoids grown in the differentiation induction medium 2 were washed with PBS and cultured in DMEM containing 25 μM fluorophore-conjugated dipeptide β-Ala-Lys-AMCA (Biotrend Chemicals) for 4 hours at 37° C. […] All sample images were recorded under standard conditions. For each concentration, 3 independent assays were performed.

SMILES	frequency / rate of gut organoid contractile movement [1]	contraction amplitude [1]	uptake (peptide absorption) of the fluorophore-conjugated dipeptide by gut organoids [2]	uptake (peptide absorption) of the fluorophore-conjugated dipeptide by gut organoids ([2]; listed as β-Ala-Lys-N(c)-7-amino-4-methylcoumarin-3-acetic acid)
NCCc1c[nH]cn1 [histamine]	increased			
CN1[C@@H]2CC[C@H]1CC(OC(=O)C(CO)c1ccccc1)C2.CN1[C@@H]2CC[C@H]1CC(OC(=O)C(CO)c1ccccc1)C2.O=S(=O)(O)O (some centres unmarked) [atropine, atropine sulfate]	decreased	decreased		
Cc1c(CC(=O)NCCCC[C@H](NC(=O)CCN)C(=O)O)c(=O)oc2cc(N)ccc12 [β-Ala-Lys-AMCA, β-Ala-Lys-N(c)-7-amino-4-methylcoumarin-3-acetic acid]			capable of uptake	showed peptide absorption
